Laboratory results reported in patent EP4745137A1 (Gluetacs Therapeutics (Shanghai) Co., Ltd., priority 2023, dated 2025).

Legend:
IKZF1 = target: T1, IKZF1 (Homo sapiens, UniProt Q13422+Q96SW2); assay: Western-blot assay of substrate protein degradation in hPBMCs, IKZF1; assay type: cell-based; settings: 24 hours of compound treatment
T1 construct: endogenous in cells; host or cells: hPBMCs (Milecell Biotechnologies)

IKZF3 = target: T2, IKZF3 (Homo sapiens, UniProt Q96SW2+Q9UKT9); assay: Western-blot assay of substrate protein degradation in hPBMCs, IKZF3; assay type: cell-based; settings: 24 hours of compound treatment
T2 construct: endogenous in cells; host or cells: hPBMCs (Milecell Biotechnologies)
T2 sequence (Q9UKT9 whole entry): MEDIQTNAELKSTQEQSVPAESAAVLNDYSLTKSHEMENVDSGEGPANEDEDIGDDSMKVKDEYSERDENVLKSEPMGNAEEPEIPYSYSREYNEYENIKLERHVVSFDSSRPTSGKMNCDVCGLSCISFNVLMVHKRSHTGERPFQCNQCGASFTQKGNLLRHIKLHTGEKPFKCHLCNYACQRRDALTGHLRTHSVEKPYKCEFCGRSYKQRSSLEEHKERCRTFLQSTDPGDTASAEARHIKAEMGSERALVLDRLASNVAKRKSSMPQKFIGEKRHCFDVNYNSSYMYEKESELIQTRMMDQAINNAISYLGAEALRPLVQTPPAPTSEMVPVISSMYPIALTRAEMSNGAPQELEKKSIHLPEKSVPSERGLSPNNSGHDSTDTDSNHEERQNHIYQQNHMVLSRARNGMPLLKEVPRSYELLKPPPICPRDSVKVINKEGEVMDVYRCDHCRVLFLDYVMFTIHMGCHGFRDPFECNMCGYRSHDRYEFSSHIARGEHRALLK
T2 sequence (Q96SW2 whole entry): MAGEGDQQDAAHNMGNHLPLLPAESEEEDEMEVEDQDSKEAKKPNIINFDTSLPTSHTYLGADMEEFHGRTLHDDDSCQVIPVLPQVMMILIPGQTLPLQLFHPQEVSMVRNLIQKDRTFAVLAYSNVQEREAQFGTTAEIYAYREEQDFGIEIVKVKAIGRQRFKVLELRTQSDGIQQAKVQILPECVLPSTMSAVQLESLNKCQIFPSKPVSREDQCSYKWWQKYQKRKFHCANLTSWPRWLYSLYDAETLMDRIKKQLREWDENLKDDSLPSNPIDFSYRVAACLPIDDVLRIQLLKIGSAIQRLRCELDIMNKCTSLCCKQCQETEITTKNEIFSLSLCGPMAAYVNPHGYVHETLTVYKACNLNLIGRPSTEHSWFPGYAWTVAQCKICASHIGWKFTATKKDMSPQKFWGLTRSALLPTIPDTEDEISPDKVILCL
T2 sequence (Q16531 whole entry partner): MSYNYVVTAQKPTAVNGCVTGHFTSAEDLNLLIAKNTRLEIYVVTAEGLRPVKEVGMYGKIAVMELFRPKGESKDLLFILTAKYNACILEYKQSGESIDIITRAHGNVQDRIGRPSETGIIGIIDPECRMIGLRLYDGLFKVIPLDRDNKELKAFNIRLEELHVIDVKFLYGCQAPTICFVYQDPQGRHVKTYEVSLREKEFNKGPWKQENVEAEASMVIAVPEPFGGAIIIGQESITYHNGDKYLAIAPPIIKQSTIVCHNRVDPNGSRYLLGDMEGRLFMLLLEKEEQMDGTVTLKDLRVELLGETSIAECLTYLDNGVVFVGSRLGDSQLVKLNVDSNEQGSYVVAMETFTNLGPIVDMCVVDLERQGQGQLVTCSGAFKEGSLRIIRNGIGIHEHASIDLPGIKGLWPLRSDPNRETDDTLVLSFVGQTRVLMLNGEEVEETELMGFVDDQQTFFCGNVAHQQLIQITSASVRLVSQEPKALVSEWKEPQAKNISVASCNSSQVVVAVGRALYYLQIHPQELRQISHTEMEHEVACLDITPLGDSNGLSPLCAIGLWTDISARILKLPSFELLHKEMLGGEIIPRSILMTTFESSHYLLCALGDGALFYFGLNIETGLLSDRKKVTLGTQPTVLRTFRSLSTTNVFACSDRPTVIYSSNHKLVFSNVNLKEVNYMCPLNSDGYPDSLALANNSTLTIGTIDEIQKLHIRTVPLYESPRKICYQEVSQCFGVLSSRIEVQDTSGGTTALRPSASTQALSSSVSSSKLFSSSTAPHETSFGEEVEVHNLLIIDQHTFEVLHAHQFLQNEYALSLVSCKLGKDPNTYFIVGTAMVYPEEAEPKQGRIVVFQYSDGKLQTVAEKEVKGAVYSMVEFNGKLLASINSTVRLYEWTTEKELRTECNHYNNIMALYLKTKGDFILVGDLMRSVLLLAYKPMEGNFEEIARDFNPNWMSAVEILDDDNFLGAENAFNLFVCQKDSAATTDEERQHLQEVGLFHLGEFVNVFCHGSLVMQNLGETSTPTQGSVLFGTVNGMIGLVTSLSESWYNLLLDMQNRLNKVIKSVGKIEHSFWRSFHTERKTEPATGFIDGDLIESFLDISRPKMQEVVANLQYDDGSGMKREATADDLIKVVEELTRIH

[1] = target: T3, human Cereblon WT GST-tagged protein (Homo sapiens, UniProt Q96SW2); assay: CRBN-binding affinity by HTRF (CEREBLON BINDING kit); settings: HTRF inhibitory activity, CEREBLON BINDING kit; read-out: HTRF IC50
T3 construct: purchased CISBIO 64BDCRBNPEH
T3 sequence (Q96SW2 whole entry): as the sequence (Q96SW2 whole entry) above

GSPT1 = target: T4, GSPT1 (Homo sapiens, UniProt P15170+Q96SW2); assay: Western-blot assay of substrate protein degradation in hPBMCs, GSPT1; assay type: cell-based; settings: 24 hours of compound treatment
T4 construct: endogenous in cells; host or cells: hPBMCs (Milecell Biotechnologies)
T4 sequence (P15170 whole entry): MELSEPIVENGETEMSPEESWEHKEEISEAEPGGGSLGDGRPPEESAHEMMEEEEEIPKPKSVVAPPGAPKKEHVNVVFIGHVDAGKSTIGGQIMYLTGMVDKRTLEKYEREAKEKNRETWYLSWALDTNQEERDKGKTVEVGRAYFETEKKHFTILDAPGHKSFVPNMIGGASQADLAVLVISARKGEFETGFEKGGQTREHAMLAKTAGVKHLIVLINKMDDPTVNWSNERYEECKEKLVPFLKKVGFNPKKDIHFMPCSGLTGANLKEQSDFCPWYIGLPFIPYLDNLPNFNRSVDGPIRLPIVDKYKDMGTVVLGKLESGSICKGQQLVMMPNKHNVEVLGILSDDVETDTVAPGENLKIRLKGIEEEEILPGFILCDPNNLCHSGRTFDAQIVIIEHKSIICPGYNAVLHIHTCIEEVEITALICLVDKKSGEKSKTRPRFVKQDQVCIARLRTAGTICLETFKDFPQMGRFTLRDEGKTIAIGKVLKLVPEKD
T4 sequence (Q96SW2 whole entry): as the sequence (Q96SW2 whole entry) above
T4 sequence (Q16531 whole entry partner): as the sequence (Q16531 whole entry partner) above

WEE1 = target: T5, WEE1 (Homo sapiens, UniProt P30291+Q96SW2); assay: Western-blot assay of substrate protein degradation in hPBMCs, WEE1; assay type: cell-based; settings: 24 hours of compound treatment
T5 construct: endogenous in cells; host or cells: hPBMCs (Milecell Biotechnologies)

CK1α = target: T6, CK1α (Homo sapiens, UniProt P48729+Q96SW2); assay: Western-blot assay of substrate protein degradation in hPBMCs, CK1α; assay type: cell-based; settings: 24 hours of compound treatment
T6 construct: endogenous in cells; host or cells: hPBMCs (Milecell Biotechnologies)
T6 sequence (P48729 whole entry): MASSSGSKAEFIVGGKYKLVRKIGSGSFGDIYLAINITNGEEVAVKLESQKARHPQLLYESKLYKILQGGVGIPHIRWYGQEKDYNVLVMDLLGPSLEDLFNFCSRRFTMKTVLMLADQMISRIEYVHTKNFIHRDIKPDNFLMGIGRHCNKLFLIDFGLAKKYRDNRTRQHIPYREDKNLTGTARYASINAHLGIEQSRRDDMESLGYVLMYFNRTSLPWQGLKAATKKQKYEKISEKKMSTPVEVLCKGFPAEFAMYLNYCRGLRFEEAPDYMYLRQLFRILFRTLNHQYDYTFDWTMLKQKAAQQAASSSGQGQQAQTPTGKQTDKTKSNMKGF
T6 sequence (Q96SW2 whole entry): as the sequence (Q96SW2 whole entry) above
T6 sequence (Q16531 whole entry partner): as the sequence (Q16531 whole entry partner) above

IKZF2 = target: T7, IKZF2 (Homo sapiens, UniProt Q96SW2+Q9UKS7); assay: Western-blot assay of substrate protein degradation in hPBMCs, IKZF2; assay type: cell-based; settings: 24 hours of compound treatment
T7 construct: endogenous in cells; host or cells: hPBMCs (Milecell Biotechnologies)
T7 sequence (Q9UKS7 whole entry): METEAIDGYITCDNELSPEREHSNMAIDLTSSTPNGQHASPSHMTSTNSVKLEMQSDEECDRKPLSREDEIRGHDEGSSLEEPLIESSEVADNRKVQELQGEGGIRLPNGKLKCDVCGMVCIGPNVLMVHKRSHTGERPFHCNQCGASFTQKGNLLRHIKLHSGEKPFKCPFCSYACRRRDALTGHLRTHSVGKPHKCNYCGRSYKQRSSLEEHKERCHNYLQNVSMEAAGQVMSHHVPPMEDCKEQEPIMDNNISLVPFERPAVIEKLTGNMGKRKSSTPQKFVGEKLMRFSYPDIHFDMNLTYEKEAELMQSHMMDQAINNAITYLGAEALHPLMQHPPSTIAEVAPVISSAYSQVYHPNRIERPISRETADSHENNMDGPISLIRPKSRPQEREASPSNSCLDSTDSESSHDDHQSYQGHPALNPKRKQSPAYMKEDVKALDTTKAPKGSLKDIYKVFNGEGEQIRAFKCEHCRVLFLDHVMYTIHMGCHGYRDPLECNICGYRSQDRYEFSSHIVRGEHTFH
T7 sequence (Q96SW2 whole entry): as the sequence (Q96SW2 whole entry) above
T7 sequence (Q16531 whole entry partner): as the sequence (Q16531 whole entry partner) above

[2] = compounds tested at 50 nM and 500 nM (concentration of the table not stated)
[3] = 50 nM and 500 nM tested (concentration behind the class not stated)

T1 sequence (Q13422 whole entry): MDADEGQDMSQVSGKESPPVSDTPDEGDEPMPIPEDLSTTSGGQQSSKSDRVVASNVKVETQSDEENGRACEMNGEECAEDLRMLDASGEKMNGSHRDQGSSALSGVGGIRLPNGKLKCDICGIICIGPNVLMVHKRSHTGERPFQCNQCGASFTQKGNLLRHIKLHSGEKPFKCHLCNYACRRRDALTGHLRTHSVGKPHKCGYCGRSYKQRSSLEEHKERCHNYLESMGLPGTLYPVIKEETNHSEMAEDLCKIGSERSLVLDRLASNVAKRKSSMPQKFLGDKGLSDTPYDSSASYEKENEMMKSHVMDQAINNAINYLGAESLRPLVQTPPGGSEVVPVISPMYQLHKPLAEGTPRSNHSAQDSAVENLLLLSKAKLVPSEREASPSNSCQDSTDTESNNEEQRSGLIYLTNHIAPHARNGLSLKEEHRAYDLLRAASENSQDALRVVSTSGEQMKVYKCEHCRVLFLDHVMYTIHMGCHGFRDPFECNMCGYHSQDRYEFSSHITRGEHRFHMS
T1 sequence (Q96SW2 whole entry): as the sequence (Q96SW2 whole entry) above
T1 sequence (Q16531 whole entry partner): as the sequence (Q16531 whole entry partner) above

Row | SMILES | IKZF 1 substrate protein remaining % (IKZF1; [2]) | IKZF3 substrate protein remaining % (IKZF3; [2]) | IC50 [1] | GSPT1 substrate protein remaining % (GSPT1; [2]) | Weel substrate protein remaining % (WEE1; [2]) | CK1a substrate protein remaining % (CK1α; [2]) | IKZF2 substrate protein remaining % (IKZF2; [2]) | IKZF 1 substrate protein remaining % (IKZF1; [3]) | IKZF3 substrate protein remaining % (IKZF3; [3]) | GSPT1 substrate protein remaining % (GSPT1; [3]) | Weel substrate protein remaining % (WEE1; [3]) | CK1a substrate protein remaining % (CK1α; [3]) | IKZF2 substrate protein remaining % (IKZF2; [3])
1 | O=C1CCC(N2Cc3cc(CN4CCN(c5ccnc(Br)c5F)CC4)ccc3C2=O)C(=O)N1 (stereo not drawn) [GT-04928, 3-(5-((4-(2-bromo-3-fluoropyridin-4-yl)piperazin-1-yl)methyl)-1-oxoisoindolin-2-yl)piperidine-2,6-dione] | B (80%< substrate protein remaining %≤ 100%) | B (80%< substrate protein remaining %≤ 100%) | < 0.5 µM | A (0% ≤ substrate protein remaining % ≤ 80%) | B (80%< substrate protein remaining %≤ 100%) | B (80%< substrate protein remaining %≤ 100%) | B (80%< substrate protein remaining %≤ 100%) |  |  |  |  |  | 
2 | O=C1CCC(N2Cc3cc(CN4CCN(c5nc(N6CCNCC6)c6sccc6n5)CC4)ccc3C2=O)C(=O)N1 (stereo not drawn) [GT-04698, 3-(1-oxo-5-((4-(4-(piperazin-1-yl)thieno[3,2-d]pyrimidin-2-yl)piperazin-1-yl)methyl)isoindolin-2-yl)piperidine-2,6-dione] | A (0% ≤ substrate protein remaining % ≤ 80%) | A (0% ≤ substrate protein remaining % ≤ 80%) | 0.5 to 1 µM | A (0% ≤ substrate protein remaining % ≤ 80%) | A (0% ≤ substrate protein remaining % ≤ 80%) | B (80%< substrate protein remaining %≤ 100%) | A (0% ≤ substrate protein remaining % ≤ 80%) |  |  |  |  |  | 
3 | O=C1CCC(N2Cc3cc(CN4CCN(c5nccc(F)c5F)CC4)ccc3C2=O)C(=O)N1 (stereo not drawn) [GT-04579, 3-(5-((4-(3,4-difluoropyridin-2-yl)piperazin-1-yl)methyl)-1-oxoisoindolin-2-yl)piperidine-2,6-dione] | B (80%< substrate protein remaining %≤ 100%) | B (80%< substrate protein remaining %≤ 100%) | 1.5 to 1.9 µM | B (80%< substrate protein remaining %≤ 100%) | B (80%< substrate protein remaining %≤ 100%) | A (0% ≤ substrate protein remaining % ≤ 80%) | B (80%< substrate protein remaining %≤ 100%) |  |  |  |  |  | 
4 | Cc1sc2ncnc(C3CCN(Cc4ccc5c(c4)CN(C4CCC(=O)NC4=O)C5=O)CC3)c2c1C (stereo not drawn) [GT-05034, 3-(5-((4-(5,6-dimethylthieno[2,3-d]pyrimidin-4-yl)piperidin-1-yl)methyl)-1-oxoisoindolin-2-yl)piperidine-2,6-dione] | A (0% ≤ substrate protein remaining % ≤ 80%) | A (0% ≤ substrate protein remaining % ≤ 80%) | < 0.5 µM | A (0% ≤ substrate protein remaining % ≤ 80%) | B (80%< substrate protein remaining %≤ 100%) | A (0% ≤ substrate protein remaining % ≤ 80%) | A (0% ≤ substrate protein remaining % ≤ 80%) |  |  |  |  |  | 
5 | O=C1CCC(N2C(=O)c3ccc(CN4CCN(c5cccs5)CC4)cc3C2=O)C(=O)N1 (stereo not drawn) [GT-06212, 2-(2,6-dioxopiperidin-3-yl)-5-((4-(thiophen-2-yl)piperazin-1-yl)methyl)isoindoline-1,3-dione] |  |  | < 0.5 µM |  |  |  |  | B (80%< substrate protein remaining %≤ 100%) | B (80%< substrate protein remaining %≤ 100%) | A (0% ≤ substrate protein remaining % ≤ 80%) | B (80%< substrate protein remaining %≤ 100%) | B (80%< substrate protein remaining %≤ 100%) | A (0% ≤ substrate protein remaining % ≤ 80%)
6 | O=C1CCC(N2Cc3cc(CN4CCN(c5ccc(Cl)nc5)CC4)ccc3C2=O)C(=O)N1 (stereo not drawn) [GT-04537, 3-(5-((4-(6-chloropyridin-3-yl)piperazin-1-yl)methyl)-1-oxoisoindolin-2-yl)piperidine-2,6-dione] | A (0% ≤ substrate protein remaining % ≤ 80%) | A (0% ≤ substrate protein remaining % ≤ 80%) | 0.5 to 1 µM | A (0% ≤ substrate protein remaining % ≤ 80%) | A (0% ≤ substrate protein remaining % ≤ 80%) | A (0% ≤ substrate protein remaining % ≤ 80%) | A (0% ≤ substrate protein remaining % ≤ 80%) |  |  |  |  |  | 
7 | O=C1CCC(N2Cc3cc(CN4CCN(c5ccc(Cl)cc5Cl)CC4)ccc3C2=O)C(=O)N1 (stereo not drawn) [GT-04464, 3-(5-((4-(2,4-dichlorophenyl)piperazin-1-yl)methyl)-1-oxoisoindolin-2-yl)piperidine-2,6-dione] | B (80%< substrate protein remaining %≤ 100%) | B (80%< substrate protein remaining %≤ 100%) | 1 to 1.5 µM | A (0% ≤ substrate protein remaining % ≤ 80%) | B (80%< substrate protein remaining %≤ 100%) | B (80%< substrate protein remaining %≤ 100%) | A (0% ≤ substrate protein remaining % ≤ 80%) |  |  |  |  |  | 
8 | O=C1CCC(N2Cc3cc(CN4CCN(c5c(F)cncc5Cl)CC4)ccc3C2=O)C(=O)N1 (stereo not drawn) [GT-04611, 3-(5-((4-(3-chloro-5-fluoropyridin-4-yl)piperazin-1-yl)methyl)-1-oxoisoindolin-2-yl)piperidine-2,6-dione] | B (80%< substrate protein remaining %≤ 100%) | B (80%< substrate protein remaining %≤ 100%) | 0.5 to 1 µM | A (0% ≤ substrate protein remaining % ≤ 80%) | A (0% ≤ substrate protein remaining % ≤ 80%) | B (80%< substrate protein remaining %≤ 100%) | B (80%< substrate protein remaining %≤ 100%) |  |  |  |  |  | 
9 | Cc1nc(C2=CCN(Cc3ccc4c(c3)CN(C3CCC(=O)NC3=O)C4=O)CC2)c2c(-c3ccccc3)csc2n1 (stereo not drawn) [GT-05102, 3-(5-((4-(2-methyl-5-phenylthieno[2,3-d]pyrimidin-4-yl)-3,6-dihydropyridin-1(2H)-yl)methyl)-1-oxoisoindolin-2-yl)piperidine-2,6-dione] | A (0% ≤ substrate protein remaining % ≤ 80%) | B (80%< substrate protein remaining %≤ 100%) | < 0.5 µM | A (0% ≤ substrate protein remaining % ≤ 80%) | A (0% ≤ substrate protein remaining % ≤ 80%) | B (80%< substrate protein remaining %≤ 100%) | A (0% ≤ substrate protein remaining % ≤ 80%) |  |  |  |  |  | 
10 | O=C1CCC(N2Cc3cc(CN4CCN(c5ncccc5F)CC4)ccc3C2=O)C(=O)N1 (stereo not drawn) [GT-04578, 3-(5-((4-(3-fluoropyridin-2-yl)piperazin-1-yl)methyl)-1-oxoisoindolin-2-yl)piperidine-2,6-dione] | B (80%< substrate protein remaining %≤ 100%) | B (80%< substrate protein remaining %≤ 100%) | 1 to 1.5 µM | A (0% ≤ substrate protein remaining % ≤ 80%) | B (80%< substrate protein remaining %≤ 100%) | A (0% ≤ substrate protein remaining % ≤ 80%) | A (0% ≤ substrate protein remaining % ≤ 80%) |  |  |  |  |  | 
11 | Cc1cc(N2CCN(Cc3ccc4c(c3)CN(C3CCC(=O)NC3=O)C4=O)CC2)ccn1 (stereo not drawn) [GT-04541, 3-(5-((4-(2-methylpyridin-4-yl)piperazin-1-yl)methyl)-1-oxoisoindolin-2-yl)piperidine-2,6-dione] | A (0% ≤ substrate protein remaining % ≤ 80%) | A (0% ≤ substrate protein remaining % ≤ 80%) | 0.5 to 1 µM | B (80%< substrate protein remaining %≤ 100%) | A (0% ≤ substrate protein remaining % ≤ 80%) | B (80%< substrate protein remaining %≤ 100%) | A (0% ≤ substrate protein remaining % ≤ 80%) |  |  |  |  |  | 
12 | Cc1nc(C2CCN(Cc3ccc4c(c3)C(=O)N(C3CCC(=O)NC3=O)C4=O)CC2)c2c3c(sc2n1)CCC3 (stereo not drawn) [GT-06651, 2-(2,6-dioxopiperidin-3-yl)-5-((4-(2-methyl-6,7-dihydro-5H-cyclopenta[4,5]thieno[2,3-d]pyrimidin-4-yl)piperidin-1-yl)methyl)isoindoline-1,3-dione] |  |  | 1 to 1.5 µM |  |  |  |  | B (80%< substrate protein remaining %≤ 100%) | B (80%< substrate protein remaining %≤ 100%) | B (80%< substrate protein remaining %≤ 100%) | A (0% ≤ substrate protein remaining % ≤ 80%) | B (80%< substrate protein remaining %≤ 100%) | A (0% ≤ substrate protein remaining % ≤ 80%)
